# Target: ALK2 (Homo sapiens (Human), UniProt Q04771)
# Assay: ALK2 inhibition, LanthaScreen Eu Kinase Binding Assay (ThermoFisher Scientific / Life Technologies)
# Conditions: read-out: Measured Ki (IC50) Value for Compounds: IC50
# Protocol: Biochemical assays to measure the inhibitory effects of the compounds were performed by ThermoFisher Scientific (Life Technologies). ALK2 inhibition was tested using LanthaScreen™ Eu Kinase Binding Assay screening protocol.
# Sequence of ALK2 (Q04771 21-509): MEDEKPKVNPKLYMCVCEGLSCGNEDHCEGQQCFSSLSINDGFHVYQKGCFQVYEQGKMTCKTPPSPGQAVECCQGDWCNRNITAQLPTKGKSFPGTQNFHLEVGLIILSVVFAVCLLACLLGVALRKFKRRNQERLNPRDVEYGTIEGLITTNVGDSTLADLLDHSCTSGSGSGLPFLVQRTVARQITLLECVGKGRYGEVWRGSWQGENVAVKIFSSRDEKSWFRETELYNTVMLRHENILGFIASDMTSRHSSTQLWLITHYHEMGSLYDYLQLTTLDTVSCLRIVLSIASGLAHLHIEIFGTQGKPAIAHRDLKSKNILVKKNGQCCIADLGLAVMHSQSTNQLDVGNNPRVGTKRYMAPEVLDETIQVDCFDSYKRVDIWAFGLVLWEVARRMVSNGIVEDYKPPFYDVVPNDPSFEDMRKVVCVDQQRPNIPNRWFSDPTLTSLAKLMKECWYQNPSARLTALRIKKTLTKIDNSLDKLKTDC
row,Structure (SMILES),IC50 [nM]
1,"N#Cc1cc(O)cc(-n2cnc(Nc3nc(N4CCC[C@H]4CO)nn4cccc34)c2)c1 [Compound 127b, (S)-3-hydroxy-5-(4-((2-(2-(hydroxymethyl)pyrrolidin-1-yl)pyrrolo[2,1-f][1,2,4]triazin-4-yl)amino)-1H-imidazol-1-yl)benzonitrile]",< 100
2,"COc1cc(-n2cnc(Nc3nc(N4CCC[C@H]4CO)nn4c(CNC(C)C)ccc34)c2)cc(OC)c1OC [Compound 129b, (S)-(1-(7-((isopropylamino)methyl)-4-((1-(3,4,5-trimethoxyphenyl)-1H-imidazol-4-yl)amino)pyrrolo[2,1-f][1,2,4]triazin-2-yl)pyrrolidin-2-yl)methanol]",< 100
3,"COc1cc(-n2cnc(Nc3nc(N4CCC[C@H]4C(N)=O)nc4ccccc34)c2)cc(OC)c1OC [Compound 130a, (S)-1-(4-((1-(3,4,5-trimethoxyphenyl)-1H-imidazol-4-yl)amino)quinazolin-2-yl)pyrrolidine-2-carboxamide]",< 100
4,"COc1cc(-n2cnc(Nc3nc(N4CCC[C@H]4CO)c4ccsc4n3)c2)cc(OC)c1OC [Compound 133b, (S)-(1-(2-((1-(3,4,5-trimethoxyphenyl)-1H-imidazol-4-yl)amino)thieno[2,3-d]pyrimidin-4-yl)pyrrolidin-2-yl)methanol]",< 100
5,"COc1cc(-n2cnc(Nc3nc(-c4cccc(CO)c4)nn4cccc34)c2)cc(OC)c1OC [Compound 134a, (3-(4-((1-(3,4,5-trimethoxyphenyl)-1H-imidazol-4-yl)amino)pyrrolo[2,1-f][1,2,4]triazin-2-yl)phenyl)methanol]",< 100
6,"COc1cc(-n2cnc(Nc3nc(-c4cccc(C(N)=O)c4)nn4cccc34)c2)cc(OC)c1OC [Compound 136a, 3-(4-((1-(3,4,5-trimethoxyphenyl)-1H-imidazol-4-yl)amino)pyrrolo[2,1-f][1,2,4]triazin-2-yl)benzamide]",< 100
7,"COc1cc(-n2cnc(Nc3nc(-c4ccccc4CO)nn4cccc34)c2)cc(OC)c1OC [Compound 137a, (2-(4-((1-(3,4,5-trimethoxyphenyl)-1H-imidazol-4-yl)amino)pyrrolo[2,1-f][1,2,4]triazin-2-yl)phenyl)methanol]",< 100
8,"COc1cc(-n2cnc(Nc3nc(N4CCC[C@H]4C(N)=O)c4sccc4n3)c2)cc(OC)c1OC [Compound 139b, (S)-1-(2-((1-(3,4,5-trimethoxyphenyl)-1H-imidazol-4-yl)amino)thieno[3,2-d]pyrimidin-4-yl)pyrrolidine-2-carboxamide]",100 to 1000
9,"COc1cc(-n2cnc(Nc3nc(N4CCC[C@H]4CO)nc4c3ccn4S(=O)(=O)c3ccc(C)cc3)c2)cc(OC)c1OC [Compound 141c, (S)-(1-(7-tosyl-4-((1-(3,4,5-trimethoxyphenyl)-1H-imidazol-4-yl)amino)-7H-pyrrolo[2,3-d]pyrimidin-2-yl)pyrrolidin-2-yl)methanol]",< 100
10,"COc1cc(-n2cnc(Nc3nc(N4CCC[C@H]4C(N)=O)nc4c3ccn4S(=O)(=O)c3ccc(C)cc3)c2)cc(OC)c1OC [Compound 142a, (S)-1-(7-tosyl-4-((1-(3,4,5-trimethoxyphenyl)-1H-imidazol-4-yl)amino)-7H-pyrrolo[2,3-d]pyrimidin-2-yl)pyrrolidine-2-carboxamide]",< 100
11,"COc1cc(-n2cnc(Nc3nc(N4CCC[C@H]4C(N)=O)nc4[nH]ccc34)c2)cc(OC)c1OC [Compound 142b, (S)-1-(4-((1-(3,4,5-trimethoxyphenyl)-1H-imidazol-4-yl)amino)-7H-pyrrolo[2,3-d]pyrimidin-2-yl)pyrrolidine-2-carboxamide]",< 100
12,"COc1cc(-n2cnc(Nc3nc(N4CCC[C@H]4C(N)=O)nc4c(OC(C)C)cccc34)c2)cc(OC)c1OC [Compound 143h, (S)-1-(8-isopropoxy-4-((1-(3,4,5-trimethoxyphenyl)-1H-imidazol-4-yl)amino)quinazolin-2-yl)pyrrolidine-2-carboxamide]",< 100
13,"COc1cc(-n2cnc(Nc3nc(N4CCC[C@H]4CO)nc4c(OC(C)C)cccc34)c2)cc(OC)c1OC [Compound 144a, (S)-(1-(8-isopropoxy-4-((1-(3,4,5-trimethoxyphenyl)-1H-imidazol-4-yl)amino)quinazolin-2-yl)pyrrolidin-2-yl)methanol]",< 100
14,"COc1cc(-n2cnc(Nc3nc(N4CCC[C@H]4CO)nc4cc(OC(C)C)ccc34)c2)cc(OC)c1OC [Compound 145h, (S)-(1-(7-isopropoxy-4-((1-(3,4,5-trimethoxyphenyl)-1H-imidazol-4-yl)amino)quinazolin-2-yl)pyrrolidin-2-yl)methanol]",< 100
15,"COc1cc(-n2cnc(Nc3nc(N4CCC[C@H]4C(N)=O)c4cccn4n3)c2)cc(OC)c1OC [Compound 147b, (S)-1-(2-((1-(3,4,5-trimethoxyphenyl)-1H-imidazol-4-yl)amino)pyrrolo[2,1-f][1,2,4]triazin-4-yl)pyrrolidine-2-carboxamide]",> 1000
16,"COc1cc(-n2cnc(Nc3nc(N4CCC[C@H]4CO)c4occc4n3)c2)cc(OC)c1OC [Compound 148b, (S)-(1-(2-((1-(3,4,5-trimethoxyphenyl)-1H-imidazol-4-yl)amino)furo[3,2-d]pyrimidin-4-yl)pyrrolidin-2-yl)methanol]",< 100
17,"COc1cc(-n2cnc(Nc3nc(N4CCC[C@H]4CO)nc4c3CN(Cc3ccccc3)CC4)c2)cc(OC)c1OC [Compound 149c, (S)-(1-(6-benzyl-4-((1-(3,4,5-trimethoxyphenyl)-1H-imidazol-4-yl)amino)-5,6,7,8-tetrahydropyrido[4,3-d]pyrimidin-2-yl)pyrrolidin-2-yl)methanol]",100 to 1000
18,"COc1cc(-n2cnc(Nc3nc(N4CCC[C@H]4C(N)=O)c4occc4n3)c2)cc(OC)c1OC [Compound 151b, (S)-1-(2-((1-(3,4,5-trimethoxyphenyl)-1H-imidazol-4-yl)amino)furo[3,2-d]pyrimidin-4-yl)pyrrolidine-2-carboxamide]",100 to 1000
19,"COc1cc(-n2cnc(Nc3nc(N4CCC[C@H]4C(N)=O)nc4c3CN(Cc3ccccc3)CC4)c2)cc(OC)c1OC [Compound 152a, (S)-1-(6-benzyl-4-(1-(3,4,5-trimethoxyphenyl)-1H-imidazol-4-ylamino)-5,6,7,8-tetrahydropyrido[4,3-d]pyrimidin-2-yl)pyrrolidine-2-carboxamide]",100 to 1000
20,"COc1cc(-n2cnc(Nc3nc(N4CCC[C@H]4CO)nc4c3CCN(Cc3ccccc3)C4)c2)cc(OC)c1OC [Compound 153c, (S)-(1-(7-benzyl-4-((1-(3,4,5-trimethoxyphenyl)-1H-imidazol-4-yl)amino)-5,6,7,8-tetrahydropyrido[3,4-d]pyrimidin-2-yl)pyrrolidin-2-yl)methanol]",< 100

# The remaining lines, values ahead:
row,IC50 [nM],Structure (SMILES)
1,< 100,"COc1cc(C(N)=O)cc(-n2cnc(Nc3nc(N4CCC[C@H]4CO)nn4cccc34)c2)c1 [Compound 125c, (S)-3-(4-((2-(2-(hydroxymethyl)pyrrolidin-1-yl)pyrrolo[2,1-f][1,2,4]triazin-4-yl)amino)-1H-imidazol-1-yl)-5-methoxybenzamide]"
2,< 100,"COc1cc(-n2cnc(Nc3nc(N4CCC[C@H]4C(N)=O)nn4c(C(=O)N5CCCCC5)ccc34)c2)cc(OC)c1OC [Compound 126c, (S)-1-(7-(piperidine-1-carbonyl)-4-((1-(3,4,5-trimethoxyphenyl)-1H-imidazol-4-yl)amino)pyrrolo[2,1-f][1,2,4]triazin-2-yl)pyrrolidine-2-carboxamide]"
3,< 100,"OC[C@@H]1CCCN1c1nc(Nc2cn(-c3ccc(F)c(F)c3)cn2)c2cccn2n1 [Compound 128c, (S)-(1-(4-((1-(3,4-difluorophenyl)-1H-imidazol-4-yl)amino)pyrrolo[2,1-f][1,2,4]triazin-2-yl)pyrrolidin-2-yl)methanol]"
4,< 100,"COc1cc(OC)cc(-n2cnc(Nc3nc(N4CCC[C@H]4C(N)=O)nn4cccc34)c2)c1 [Compound 131a, (S)-1-(4-((1-(3,5-dimethoxyphenyl)-1H-imidazol-4-yl)amino)pyrrolo[2,1-f][1,2,4]triazin-2-yl)pyrrolidine-2-carboxamide]"
5,< 100,"COc1cc(-n2cnc(Nc3nc(N4CCC[C@H]4C(N)=O)c4ccsc4n3)c2)cc(OC)c1OC [Compound 132b, (S)-1-(2-((1-(3,4,5-trimethoxyphenyl)-1H-imidazol-4-yl)amino)thieno[2,3-d]pyrimidin-4-yl)pyrrolidine-2-carboxamide]"
6,< 100,"COc1cc(-n2cnc(Nc3nc(-c4ccccc4C(N)=O)nn4cccc34)c2)cc(OC)c1OC [Compound 135a, 2-(4-((1-(3,4,5-trimethoxyphenyl)-1H-imidazol-4-yl)amino)pyrrolo[2,1-f][1,2,4]triazin-2-yl)benzamide]"
7,< 100,"COc1cc(-n2cnc(Nc3nc(N4CCC[C@H]4CO)c4sccc4n3)c2)cc(OC)c1OC [Compound 138b, (S)-(1-(2-((1-(3,4,5-trimethoxyphenyl)-1H-imidazol-4-yl)amino)thieno[3,2-d]pyrimidin-4-yl)pyrrolidin-2-yl)methanol]"
8,< 100,"COc1cc(-n2cnc(Nc3nc(N4CCC[C@H]4CO)nc4cccnc34)c2)cc(OC)c1OC [Compound 140c, (S)-(1-(4-((1-(3,4,5-trimethoxyphenyl)-1H-imidazol-4-yl)amino)pyrido[3,2-d]pyrimidin-2-yl)pyrrolidin-2-yl)methanol]"
9,< 100,"COc1cc(-n2cnc(Nc3nc(N4CCC[C@H]4CO)nc4[nH]ccc34)c2)cc(OC)c1OC [Compound 141d, (S)-(1-(4-((1-(3,4,5-trimethoxyphenyl)-1H-imidazol-4-yl)amino)-7H-pyrrolo[2,3-d]pyrimidin-2-yl)pyrrolidin-2-yl)methanol]"
10,< 100,"COc1cc(-n2cnc(Nc3nc(-c4cccc(C(N)=O)c4)nc4sccc34)c2)cc(OC)c1OC [Compound 146a, 3-(4-((1-(3,4,5-trimethoxyphenyl)-1H-imidazol-4-yl)amino)thieno[2,3-d]pyrimidin-2-yl)benzamide]"
11,< 100,"COc1cc(-n2cnc(Nc3nc(N4CCC[C@H]4CO)c4ncsc4n3)c2)cc(OC)c1OC [Compound 150c, (S)-(1-(5-((1-(3,4,5-trimethoxyphenyl)-1H-imidazol-4-yl)amino)thiazolo[5,4-d]pyrimidin-7-yl)pyrrolidin-2-yl)methanol]"

# From US11661426B2, “Imidazole-containing inhibitors of ALK2 kinase” (BioCryst Pharmaceuticals, Inc., priority 2017, dated 2023)
